Source: ChEMBL document CHEMBL4507319 (2021)

Assays:
[1] = target: Serine/threonine-protein kinase SIK2 (Homo sapiens) (UniProt Q9H0K1); conditions: Compound concentration 1000.0 nM
[2] = target: Ephrin type-A receptor 4 (Homo sapiens) (UniProt P54764); conditions: Compound concentration 1000.0 nM
[3] = target: D(3) dopamine receptor (Homo sapiens) (UniProt P35462); conditions: Compound concentration 10.0 uM
[4] = target: Serine/threonine-protein kinase MARK2 (Homo sapiens) (UniProt Q7KZI7); conditions: Compound concentration 1000.0 nM
Sequence of Serine/threonine-protein kinase MARK2 (Homo sapiens) (Q7KZI7 whole entry): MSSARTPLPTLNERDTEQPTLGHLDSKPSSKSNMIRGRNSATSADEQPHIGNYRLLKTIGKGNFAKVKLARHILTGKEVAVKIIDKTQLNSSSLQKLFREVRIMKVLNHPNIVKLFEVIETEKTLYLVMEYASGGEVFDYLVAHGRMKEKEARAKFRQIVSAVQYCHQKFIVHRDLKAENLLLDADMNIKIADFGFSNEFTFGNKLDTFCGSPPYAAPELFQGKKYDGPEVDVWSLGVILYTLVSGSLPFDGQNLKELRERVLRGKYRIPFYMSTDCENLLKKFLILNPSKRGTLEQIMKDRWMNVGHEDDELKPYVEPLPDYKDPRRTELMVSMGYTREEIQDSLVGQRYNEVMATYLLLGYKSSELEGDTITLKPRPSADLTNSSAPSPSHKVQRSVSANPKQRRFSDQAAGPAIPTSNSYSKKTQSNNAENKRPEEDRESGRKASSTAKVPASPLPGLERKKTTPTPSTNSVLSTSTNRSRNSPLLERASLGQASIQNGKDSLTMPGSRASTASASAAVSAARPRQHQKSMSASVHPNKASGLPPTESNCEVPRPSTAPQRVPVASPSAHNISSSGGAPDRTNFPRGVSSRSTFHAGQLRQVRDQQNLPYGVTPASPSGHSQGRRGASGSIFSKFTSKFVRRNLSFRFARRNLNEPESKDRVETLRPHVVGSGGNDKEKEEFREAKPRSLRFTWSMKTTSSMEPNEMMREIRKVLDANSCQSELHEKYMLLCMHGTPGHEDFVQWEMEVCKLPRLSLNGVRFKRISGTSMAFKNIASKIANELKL

[5] = target: cAMP-dependent protein kinase catalytic subunit alpha (Homo sapiens) (UniProt P17612); conditions: Compound concentration 1000.0 nM
[6] = target: Atypical kinase COQ8B, mitochondrial (Homo sapiens) (UniProt Q96D53); conditions: Compound concentration 1000.0 nM
Sequence of Atypical kinase COQ8B, mitochondrial (Homo sapiens) (Q96D53 whole entry): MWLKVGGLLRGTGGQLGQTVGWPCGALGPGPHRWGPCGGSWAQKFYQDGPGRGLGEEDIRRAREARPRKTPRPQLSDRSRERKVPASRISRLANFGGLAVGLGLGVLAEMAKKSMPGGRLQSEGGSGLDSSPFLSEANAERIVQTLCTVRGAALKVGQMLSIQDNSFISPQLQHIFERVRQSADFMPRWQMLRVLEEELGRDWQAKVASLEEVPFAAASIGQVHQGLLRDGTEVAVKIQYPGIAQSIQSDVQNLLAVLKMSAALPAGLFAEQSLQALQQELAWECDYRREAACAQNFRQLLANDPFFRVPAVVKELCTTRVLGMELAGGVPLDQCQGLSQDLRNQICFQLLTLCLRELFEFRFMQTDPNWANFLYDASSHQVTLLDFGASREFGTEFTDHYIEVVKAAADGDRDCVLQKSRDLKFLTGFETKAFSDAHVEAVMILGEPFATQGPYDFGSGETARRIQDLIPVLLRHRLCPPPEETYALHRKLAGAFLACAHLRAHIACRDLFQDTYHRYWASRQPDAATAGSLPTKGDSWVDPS

[7] = target: Calcium-dependent protein kinase 1 (Plasmodium falciparum) (UniProt P62344); conditions: Compound concentration 1000.0 nM
Sequence of Calcium-dependent protein kinase 1 (Plasmodium falciparum) (P62344 2-524 limits assumed): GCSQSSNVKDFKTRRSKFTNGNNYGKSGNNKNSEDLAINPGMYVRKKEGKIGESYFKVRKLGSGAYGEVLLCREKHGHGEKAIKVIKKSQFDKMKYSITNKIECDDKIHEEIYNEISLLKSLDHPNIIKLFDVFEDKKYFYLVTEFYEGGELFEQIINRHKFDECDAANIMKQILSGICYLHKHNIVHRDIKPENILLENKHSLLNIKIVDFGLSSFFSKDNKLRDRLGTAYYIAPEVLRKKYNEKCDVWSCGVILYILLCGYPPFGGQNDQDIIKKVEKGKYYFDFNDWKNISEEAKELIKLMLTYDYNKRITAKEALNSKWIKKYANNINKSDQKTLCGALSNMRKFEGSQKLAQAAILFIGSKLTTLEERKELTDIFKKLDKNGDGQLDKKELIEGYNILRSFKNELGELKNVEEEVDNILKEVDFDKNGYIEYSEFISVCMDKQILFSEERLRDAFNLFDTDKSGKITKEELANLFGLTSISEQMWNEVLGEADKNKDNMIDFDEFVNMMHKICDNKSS

[8] = target: Wee1-like protein kinase 2 (Homo sapiens) (UniProt P0C1S8); conditions: Compound concentration 1000.0 nM
[9] = target: Macrophage-stimulating protein receptor (Homo sapiens) (UniProt Q04912); conditions: Compound concentration 1000.0 nM
[10] = target: Tyrosine-protein kinase JAK1 (Homo sapiens) (UniProt P23458); conditions: Compound concentration 1000.0 nM
[11] = target: Mitogen-activated protein kinase kinase kinase 10 (Homo sapiens) (UniProt Q02779); conditions: Compound concentration 1000.0 nM
[12] = target: Calcium/calmodulin-dependent protein kinase kinase 1 (Homo sapiens) (UniProt Q8N5S9); conditions: Compound concentration 1000.0 nM
Sequence of Calcium/calmodulin-dependent protein kinase kinase 1 (Homo sapiens) (Q8N5S9 whole entry, looked up): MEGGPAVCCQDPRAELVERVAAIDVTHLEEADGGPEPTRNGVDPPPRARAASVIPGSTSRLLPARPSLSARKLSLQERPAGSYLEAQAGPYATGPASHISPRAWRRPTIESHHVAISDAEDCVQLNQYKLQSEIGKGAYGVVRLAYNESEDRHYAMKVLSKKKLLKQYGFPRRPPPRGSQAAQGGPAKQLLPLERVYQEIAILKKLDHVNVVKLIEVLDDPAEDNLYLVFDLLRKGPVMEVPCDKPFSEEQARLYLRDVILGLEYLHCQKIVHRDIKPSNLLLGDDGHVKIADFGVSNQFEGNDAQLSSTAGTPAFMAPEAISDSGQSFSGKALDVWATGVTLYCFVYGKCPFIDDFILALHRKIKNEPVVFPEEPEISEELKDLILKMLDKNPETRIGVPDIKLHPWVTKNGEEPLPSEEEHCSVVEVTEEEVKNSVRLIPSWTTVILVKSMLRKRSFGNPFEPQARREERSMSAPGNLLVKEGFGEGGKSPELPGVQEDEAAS

[13] = target: Mitogen-activated protein kinase 4 (Homo sapiens) (UniProt P31152); conditions: Compound concentration 1000.0 nM
[14] = target: Cyclin-dependent kinase 15 (Homo sapiens) (UniProt Q96Q40); conditions: Compound concentration 1000.0 nM
Sequence of Cyclin-dependent kinase 15 (Homo sapiens) (Q96Q40 whole entry): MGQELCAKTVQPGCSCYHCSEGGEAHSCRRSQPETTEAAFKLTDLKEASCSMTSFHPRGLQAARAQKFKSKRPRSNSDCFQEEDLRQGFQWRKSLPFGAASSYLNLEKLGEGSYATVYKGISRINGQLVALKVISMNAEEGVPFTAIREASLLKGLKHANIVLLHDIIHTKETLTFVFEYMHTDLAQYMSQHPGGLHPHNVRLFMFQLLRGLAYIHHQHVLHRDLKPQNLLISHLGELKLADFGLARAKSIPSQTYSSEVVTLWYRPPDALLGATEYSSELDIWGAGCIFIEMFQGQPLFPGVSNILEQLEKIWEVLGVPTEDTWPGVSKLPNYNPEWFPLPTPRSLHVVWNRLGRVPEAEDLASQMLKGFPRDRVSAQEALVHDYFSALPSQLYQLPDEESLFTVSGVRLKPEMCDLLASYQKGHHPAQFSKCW

[15] = target: Tyrosine-protein kinase CSK (Homo sapiens) (UniProt P41240); conditions: Compound concentration 1000.0 nM
Sequence of Tyrosine-protein kinase CSK (Homo sapiens) (P41240 2-450 limits assumed): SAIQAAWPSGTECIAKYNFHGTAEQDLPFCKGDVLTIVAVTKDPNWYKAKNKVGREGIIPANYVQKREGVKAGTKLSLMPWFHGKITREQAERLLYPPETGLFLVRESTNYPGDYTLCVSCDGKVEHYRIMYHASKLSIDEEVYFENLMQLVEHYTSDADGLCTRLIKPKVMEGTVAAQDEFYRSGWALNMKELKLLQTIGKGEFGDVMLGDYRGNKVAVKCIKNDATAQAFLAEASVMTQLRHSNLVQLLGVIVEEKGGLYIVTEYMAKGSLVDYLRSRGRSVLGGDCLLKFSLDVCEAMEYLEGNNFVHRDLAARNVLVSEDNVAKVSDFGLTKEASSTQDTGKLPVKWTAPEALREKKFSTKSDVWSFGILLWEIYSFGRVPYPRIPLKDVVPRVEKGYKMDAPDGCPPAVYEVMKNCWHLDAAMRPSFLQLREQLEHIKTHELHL

[16] = target: T1, Activin receptor type-1B (Homo sapiens) (UniProt P36896); conditions: Compound concentration 1000.0 nM
T1 sequence (whole entry): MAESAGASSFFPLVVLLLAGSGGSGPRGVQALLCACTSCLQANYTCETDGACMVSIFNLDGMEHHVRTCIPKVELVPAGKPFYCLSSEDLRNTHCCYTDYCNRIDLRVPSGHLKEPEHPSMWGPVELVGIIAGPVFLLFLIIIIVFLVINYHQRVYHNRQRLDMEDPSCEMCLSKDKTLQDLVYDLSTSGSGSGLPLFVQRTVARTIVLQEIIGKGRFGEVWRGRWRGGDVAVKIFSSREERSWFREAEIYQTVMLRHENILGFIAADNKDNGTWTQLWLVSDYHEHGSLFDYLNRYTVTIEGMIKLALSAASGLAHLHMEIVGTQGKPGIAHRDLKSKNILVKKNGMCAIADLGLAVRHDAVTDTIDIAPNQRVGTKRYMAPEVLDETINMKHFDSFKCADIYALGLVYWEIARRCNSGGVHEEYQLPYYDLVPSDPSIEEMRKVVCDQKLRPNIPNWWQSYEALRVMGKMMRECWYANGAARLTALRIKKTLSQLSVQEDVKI

[17] = tested on: Tyrosine-protein kinase ABL1 (Homo sapiens), P00519 [Q252H]; conditions: Compound concentration 1000.0 nM
[18] = target: Aurora kinase C (Homo sapiens) (UniProt Q9UQB9); conditions: Compound concentration 1000.0 nM
[19] = target: T2, cAMP-dependent protein kinase catalytic subunit PRKX (Homo sapiens) (UniProt P51817); conditions: Compound concentration 1000.0 nM
T2 sequence (whole entry): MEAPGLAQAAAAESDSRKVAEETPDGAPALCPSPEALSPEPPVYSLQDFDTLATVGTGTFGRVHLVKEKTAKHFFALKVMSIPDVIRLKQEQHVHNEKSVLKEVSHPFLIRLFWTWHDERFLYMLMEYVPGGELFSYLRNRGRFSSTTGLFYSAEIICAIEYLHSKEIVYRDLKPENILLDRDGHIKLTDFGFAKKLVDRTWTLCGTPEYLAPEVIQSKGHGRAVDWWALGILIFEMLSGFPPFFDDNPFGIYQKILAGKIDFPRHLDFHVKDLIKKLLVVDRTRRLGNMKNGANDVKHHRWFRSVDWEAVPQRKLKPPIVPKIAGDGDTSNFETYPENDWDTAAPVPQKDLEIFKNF

[20] = target: Sigma non-opioid intracellular receptor 1 (Homo sapiens) (UniProt Q99720); conditions: Compound concentration 10.0 uM
Sequence of Sigma non-opioid intracellular receptor 1 (Homo sapiens) (Q99720 whole entry): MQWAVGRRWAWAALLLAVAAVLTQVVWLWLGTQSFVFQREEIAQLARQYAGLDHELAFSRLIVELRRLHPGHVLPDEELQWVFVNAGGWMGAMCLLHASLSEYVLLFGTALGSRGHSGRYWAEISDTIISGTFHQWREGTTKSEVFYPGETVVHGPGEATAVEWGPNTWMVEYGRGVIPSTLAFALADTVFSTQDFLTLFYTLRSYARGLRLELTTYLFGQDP

Sequence of Ephrin type-A receptor 4 (Homo sapiens) (P54764 whole entry): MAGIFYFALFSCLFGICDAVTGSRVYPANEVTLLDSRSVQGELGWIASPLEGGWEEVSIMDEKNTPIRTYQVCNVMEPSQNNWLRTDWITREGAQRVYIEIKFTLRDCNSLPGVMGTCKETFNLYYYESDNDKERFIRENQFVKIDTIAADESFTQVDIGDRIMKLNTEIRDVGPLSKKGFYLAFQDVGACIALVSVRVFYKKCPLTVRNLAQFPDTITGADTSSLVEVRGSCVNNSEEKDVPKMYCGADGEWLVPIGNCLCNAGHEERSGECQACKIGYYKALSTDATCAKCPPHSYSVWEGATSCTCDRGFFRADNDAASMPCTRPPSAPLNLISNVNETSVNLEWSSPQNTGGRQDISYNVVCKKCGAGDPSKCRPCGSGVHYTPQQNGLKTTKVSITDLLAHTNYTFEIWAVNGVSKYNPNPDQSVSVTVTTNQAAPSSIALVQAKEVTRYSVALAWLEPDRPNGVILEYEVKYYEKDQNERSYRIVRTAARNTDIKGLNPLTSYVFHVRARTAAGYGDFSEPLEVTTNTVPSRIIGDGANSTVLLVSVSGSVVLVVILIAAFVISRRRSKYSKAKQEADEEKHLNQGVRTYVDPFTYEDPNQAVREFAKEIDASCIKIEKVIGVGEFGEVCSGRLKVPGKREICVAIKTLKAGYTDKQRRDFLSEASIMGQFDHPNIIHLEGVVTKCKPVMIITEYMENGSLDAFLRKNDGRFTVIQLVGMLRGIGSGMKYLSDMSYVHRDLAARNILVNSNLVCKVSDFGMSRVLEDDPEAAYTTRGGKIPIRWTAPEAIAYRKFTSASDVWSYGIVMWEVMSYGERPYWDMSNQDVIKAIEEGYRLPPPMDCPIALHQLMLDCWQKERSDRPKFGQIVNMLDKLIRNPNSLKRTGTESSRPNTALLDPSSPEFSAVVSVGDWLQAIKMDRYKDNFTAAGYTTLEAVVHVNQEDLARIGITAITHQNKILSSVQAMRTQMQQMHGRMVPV
Sequence of D(3) dopamine receptor (Homo sapiens) (P35462 whole entry): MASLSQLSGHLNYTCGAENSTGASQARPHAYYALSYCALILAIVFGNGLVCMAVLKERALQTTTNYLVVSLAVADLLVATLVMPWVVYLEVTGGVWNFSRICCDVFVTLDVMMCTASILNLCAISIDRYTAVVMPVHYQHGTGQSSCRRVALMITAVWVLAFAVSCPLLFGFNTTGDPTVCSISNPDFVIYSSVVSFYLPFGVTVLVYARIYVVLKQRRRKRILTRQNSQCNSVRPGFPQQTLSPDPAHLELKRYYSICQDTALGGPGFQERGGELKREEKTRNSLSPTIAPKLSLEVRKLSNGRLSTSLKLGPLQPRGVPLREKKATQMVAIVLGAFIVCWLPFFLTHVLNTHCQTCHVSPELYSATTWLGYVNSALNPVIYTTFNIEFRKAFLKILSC

SMILES	residual activity [1] [%]	residual activity [2] [%]	inhibition [3] [%]	residual activity [4] [%]	residual activity [5] [%]	residual activity [6] [%]	residual activity [7] [%]	residual activity [8] [%]	residual activity [9] [%]	residual activity [10] [%]	residual activity [11] [%]	residual activity [12] [%]	residual activity [13] [%]	residual activity [14] [%]	residual activity [15] [%]	residual activity [16] [%]	residual activity [17] [%]	residual activity [18] [%]	residual activity [19] [%]	inhibition [20] [%]
CCc1ccccc1C(=O)Nc1n[nH]c2c(C)c(F)c(C3C(C#N)=C(C)N(C)C(C)=C3C#N)cc12 [BAY-3827]	69	100	10.4	40	89	96	100	82	100	97	100	100	96	95	98	100	99	29	88	30.5
CC1=C(C#N)C(c2ccc3c(c2)c(NC(=O)c2ccccc2C)nn3C)C(C#N)=C(C)N1 [BAY-974]	93	93	2.48	99	77	100	98	100	95	100	69	100	100	100	85	80	73	97	76	37.9
